Source: US20250129074A1, “CHIMERIC COMPOUND FOR TARGETED DEGRADATION OF ANDROGEN RECEPTOR PROTEIN, PREPARATION METHOD THEREFOR, AND MEDICAL USE THEREOF” (Jiangsu Hengrui Pharmaceuticals Co., Ltd., priority 2021, published 2025)
Read-outs that look alike come from different tables or passages of the source.

Columns and labels:
androgen receptor (AR) = target: T1, androgen receptor (AR) (Homo sapiens, UniProt P10275, T878A); assay: Degradation activity on androgen receptor in LNCaP cells (AR ELISA); assay type: cell-based; conditions: for Dmax: read-out: Max (maximum AR degradation rate)
T1 construct: host or cells: LNCaP human prostate cancer cells
T1 sequence (P10275 1-920 T878A): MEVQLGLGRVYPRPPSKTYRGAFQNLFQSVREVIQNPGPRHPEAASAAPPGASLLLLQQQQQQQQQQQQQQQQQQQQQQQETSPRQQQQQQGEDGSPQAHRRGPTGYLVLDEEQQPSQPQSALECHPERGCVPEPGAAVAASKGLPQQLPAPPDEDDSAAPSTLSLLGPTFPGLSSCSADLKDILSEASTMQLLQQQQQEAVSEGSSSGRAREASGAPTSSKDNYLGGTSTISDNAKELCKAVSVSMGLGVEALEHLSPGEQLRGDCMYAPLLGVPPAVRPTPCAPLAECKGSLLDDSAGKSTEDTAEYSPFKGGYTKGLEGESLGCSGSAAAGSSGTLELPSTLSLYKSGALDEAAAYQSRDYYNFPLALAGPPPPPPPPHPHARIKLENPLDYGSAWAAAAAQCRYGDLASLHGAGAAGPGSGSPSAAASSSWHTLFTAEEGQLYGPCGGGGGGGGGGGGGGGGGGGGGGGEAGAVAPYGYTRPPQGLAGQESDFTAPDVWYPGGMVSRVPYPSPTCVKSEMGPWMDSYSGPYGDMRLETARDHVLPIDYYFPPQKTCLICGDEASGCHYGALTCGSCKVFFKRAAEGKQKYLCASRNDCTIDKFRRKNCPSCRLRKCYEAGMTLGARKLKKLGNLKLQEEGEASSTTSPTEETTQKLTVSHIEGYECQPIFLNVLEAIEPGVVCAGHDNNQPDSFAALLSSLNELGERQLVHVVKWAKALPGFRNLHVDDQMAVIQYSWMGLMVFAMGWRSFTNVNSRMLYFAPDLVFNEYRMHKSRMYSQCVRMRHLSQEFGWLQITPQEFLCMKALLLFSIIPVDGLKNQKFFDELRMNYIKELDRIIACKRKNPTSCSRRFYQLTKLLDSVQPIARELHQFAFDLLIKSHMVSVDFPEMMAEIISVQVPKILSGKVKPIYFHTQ
Experimental: The plate was incubated in a 37° C., 5% CO2 cell incubator for three days. […] A blank control cell well containing 0.5% DMSO was set up. The plate was incubated in a 37° C., 5% CO2 cell incubator for 24 hours. […] The lysate was well mixed by pipetting up and down and then centrifuged at 4000 rpm at 4° C. for 10 minutes. […] The plate was sealed and incubated in a 37° C. incubator for 1 hour. […] The plate was sealed and then incubated in a 37° C. incubator for 30 minutes.

LNCaP cells = assay: Inhibition of LNCaP proliferation (CellTiter-Glo); assay type: cell-based; conditions: Homo sapiens, 144 h, 0.1 nM R1881, six days; for Emax: read-out: Max (maximum proliferation inhibition rate)
Experimental: The plate was incubated in a 37° C., 5% CO2 cell incubator for three days. […] A blank control cell well containing 0.5% DMSO and a cell-free vehicle control well were set up. The plate was incubated in a 37° C., 5% CO2 cell incubator for six days.

[1] = read-out: LNCaP DC50, 0.1 nM R1881, 24 hours
[2] = 0.1 nM R1881, 24 hours, read-out: LNCaP DC50

Row | SMILES | Dmax (androgen receptor (AR); 0.1 nM R1881, 24 hours) | DC50 (androgen receptor (AR); [1]) | IC50 (LNCaP cells) | Emax (LNCaP cells) | DC50 (androgen receptor (AR); [2])
1 | C[C@H]1CC2(CCN(c3cnc(C(=O)N4CCC(CN5CCN(c6cccc(NC7CCC(=O)NC7=O)c6)CC5)CC4)cn3)CC2)CN1c1ccc(C#N)c(Cl)c1 (stereo partly drawn) [Example 17, 2-Chloro-4-((3S)-8-(5-(4-((4-(3-((2,6-dioxopiperidin-3-yl)amino)phenyl)piperazin-1-yl)methyl)piperidine-1-carbonyl)pyrazin-2-yl)-3-methyl-2,8-diazaspiro[4.5]decan-2-yl)benzonitrile] | 97% | 3 nM | 112 nM | 74% | –
2 | C[C@H]1CC2(CCN(c3ccc(C(=O)N4CCC(CN5CCC(c6ccc(NC7CCC(=O)NC7=O)cc6F)CC5)CC4)cc3)CC2)CN1c1ccc(C#N)c(Cl)c1 (stereo partly drawn) [Example 27, 2-Chloro-4-((3S)-8-(4-(4-((4-(4-((2,6-dioxopiperidin-3-yl)amino)-2-fluorophenyl)piperidin-1-yl)methyl)piperidine-1-carbonyl)phenyl)-3-methyl-2,8-diazaspiro[4.5]decan-2-yl)benzonitrile] | 96% | – | 7.9 nM | 64% | 7.7 nM
3 | C[C@H]1CC2(CCN(c3ccc(C(=O)N4CCC(CN5CCC(c6cccc(NC7CCC(=O)NC7=O)c6)CC5)CC4)nn3)CC2)CN1c1ccc(C#N)c(Cl)c1 (stereo partly drawn) [Example 20, 2-Chloro-4-((3S)-8-(6-(4-((4-(3-((2,6-dioxopiperidin-3-yl)amino)phenyl)piperidin-1-yl)methyl)piperidine-1-carbonyl)pyridazin-3-yl)-3-methyl-2,8-diazaspiro[4.5]decan-2-yl)benzonitrile] | 92% | – | 15 nM | 59% | 0.4 nM
4 | C[C@H]1CC2(CCN(c3ccc(C(=O)N4CCC(CN5CCN(c6cccc(NC7CCC(=O)NC7=O)c6)CC5)CC4)cn3)CC2)CN1c1ccc(C#N)c(Cl)c1 (stereo partly drawn) [Example 18, 2-Chloro-4-((3S)-8-(5-(4-((4-(3-((2,6-dioxopiperidin-3-yl)amino)phenyl)piperazin-1-yl)methyl)piperidine-1-carbonyl)pyridin-2-yl)-3-methyl-2,8-diazaspiro[4.5]decan-2-yl)benzonitrile] | 96% | – | 123 nM | 72% | 5.8 nM
5 | C[C@H]1CC2(CCN(c3ccc(C(=O)N4CCC5(CC4)CC(N4CCN(c6cccc(N7CCC(=O)NC7=O)c6)CC4)C5)cc3)CC2)CN1c1ccc(C#N)c(Cl)c1 [Example 35, (S)-2-Chloro-4-(8-(4-(2-(4-(3-(2,4-dioxotetrahydropyrimidin-1(2H)-yl)phenyl)piperazin-1-yl)-7-azaspiro[3.5]nonane-7-carbonyl)phenyl)-3-methyl-2,8-diazaspiro[4.5]decan-2-yl)benzonitrile] | 88% | – | 31 nM | 57% | 5.2 nM
6 | C[C@H]1CC2(CCN(c3ccc(C(=O)N4CCC(CN5CCN(c6ccc(C(=O)NC7CCC(=O)NC7=O)nc6)CC5)CC4)cc3)CC2)CN1c1ccc(C#N)c(Cl)c1 (stereo partly drawn) [Example 4, 5-(4-((1-(4-((S)-2-(3-Chloro-4-cyanophenyl)-3-methyl-2,8-diazaspiro[4.5]decan-8-yl)benzoyl)piperidin-4-yl)methyl)piperazin-1-yl)-N-(2,6-dioxopiperidin-3-yl)picolinamide] | 92% | – | 135 nM | 58% | 20.2 nM
7 | C[C@H]1CC2(CCN(c3ccc(C(=O)N4CCC(CN5CCC(c6cccc(NC7CCC(=O)NC7=O)c6)CC5)CC4)cc3)CC2)CN1c1ccc(C#N)c(Cl)c1 (stereo partly drawn) [Example 19, 2-Chloro-4-((3S)-8-(4-(4-((4-(3-((2,6-dioxopiperidin-3-yl)amino)phenyl)piperidin-1-yl)methyl)piperidine-1-carbonyl)phenyl)-3-methyl-2,8-diazaspiro[4.5]decan-2-yl)benzonitrile] | 96% | – | 60 nM | 68% | 1.8 nM
8 | C[C@H]1CC2(CCN(c3ccc(C(=O)N4CCC5(CC4)CC(N4CCN(c6cccc(NC7CCC(=O)NC7=O)c6)CC4)C5)cc3F)CC2)CN1c1ccc(C#N)c(Cl)c1 (stereo partly drawn) [Example 36, 2-Chloro-4-((3S)-8-(4-(2-(4-(3-((2,6-dioxopiperidin-3-yl)amino)phenyl)piperazin-1-yl)-7-azaspiro[3.5]nonane-7-carbonyl)-2-fluorophenyl)-3-methyl-2,8-diazaspiro[4.5]decan-2-yl)benzonitrile] | 97% | – | 35 nM | 57% | 5.3 nM
9 | C[C@H]1CC2(CCN(c3ccc(C(=O)N4CCC(N5CCN(c6ccc(C(=O)NC7CCC(=O)NC7=O)nc6)CC5)CC4)cc3)CC2)CN1c1ccc(C#N)c(Cl)c1 (stereo partly drawn) [Example 2, 5-(4-(1-(4-((S)-2-(3-Chloro-4-cyanophenyl)-3-methyl-2,8-diazaspiro[4.5]decan-8-yl)benzoyl)piperidin-4-yl)piperazin-1-yl)-N-(2,6-dioxopiperidin-3-yl)picolinamide] | 90% | 5.1 nM | 164 nM | 62% | –
10 | C[C@H]1CC2(CCN(c3ccc(C(=O)N4CCC(CN5CCN(c6ccc(C(=O)NC7CCC(=O)NC7=O)c(F)c6)CC5)CC4)cc3)CC2)CN1c1ccc(C#N)c(Cl)c1 (stereo partly drawn) [Example 3, 4-(4-((1-(4-((S)-2-(3-Chloro-4-cyanophenyl)-3-methyl-2,8-diazaspiro[4.5]decan-8-yl)benzoyl)piperidin-4-yl)methyl)piperazin-1-yl)-N-(2,6-dioxopiperidin-3-yl)-2-fluorobenzamide] | 89% | – | 286 nM | 60% | 22.1 nM
11 | C[C@H]1CC2(CCN(c3ccc(C(=O)N4CCC5(CC4)CC(N4CCN(c6ccc(N7CCC(=O)NC7=O)cc6)CC4)C5)nc3)CC2)CN1c1ccc(C#N)c(Cl)c1 [Example 32, (S)-2-Chloro-4-(8-(6-(2-(4-(4-(2,4-dioxotetrahydropyrimidin-1(2H)-yl)phenyl)piperazin-1-yl)-7-azaspiro[3.5]nonane-7-carbonyl)pyridin-3-yl)-3-methyl-2,8-diazaspiro[4.5]decan-2-yl)benzonitrile] | 95% | – | 3.1 nM | 63% | 1 nM
12 | C[C@H]1CC2(CCN(c3ccc(C(=O)N4CCC(N5CCC(N6CCN(c7ccc(N8CCC(=O)NC8=O)cc7)CC6)CC5)CC4)cc3)CC2)CN1c1ccc(C#N)c(Cl)c1 [Example 6, (S)-2-Chloro-4-(8-(4-(4-(4-(4-(2,4-dioxotetrahydropyrimidin-1(2H)-yl)phenyl)piperazin-1-yl)-[1,4′-bipiperidine]-1′-carbonyl)phenyl)-3-methyl-2,8-diazaspiro[4.5]decan-2-yl)benzonitrile] | 86% | – | 24.6 nM | 50% | 5.7 nM
13 | C[C@H]1CC2(CCN(c3ccc(C(=O)N4CCC5(CCC(N6CCN(c7ccc(N8CCC(=O)NC8=O)cc7)CC6)CC5)CC4)cc3)CC2)CN1c1ccc(C#N)c(Cl)c1 [Example 29, (S)-2-Chloro-4-(8-(4-(9-(4-(4-(2,4-dioxotetrahydropyrimidin-1(2H)-yl)phenyl)piperazin-1-yl)-3-azaspiro[5.5]undecane-3-carbonyl)phenyl)-3-methyl-2,8-diazaspiro[4.5]decan-2-yl)benzonitrile] | 93% | – | 81 nM | 45% | 12 nM
14 | C[C@H]1CC2(CCN(c3ccc(C(=O)N4CCC(CN5CCN(c6cccc(NC7CCC(=O)NC7=O)c6)CC5)CC4)cc3)CC2)CN1c1ccc(C#N)c(C(F)(F)F)c1 (stereo partly drawn) [Example 41, 4-((3S)-8-(4-(4-((4-(3-((2,6-Dioxopiperidin-3-yl)amino)phenyl)piperazin-1-yl)methyl)piperidine-1-carbonyl)phenyl)-3-methyl-2,8-diazaspiro[4.5]decan-2-yl)-2-(trifluoromethyl)benzonitrile] | 96% | – | 98 nM | 56% | 17.1 nM
